Molecules are shown by their SMILES.

By pIC50 is commonly meant −log10 of the IC50, conventionally taken in molar units. A high value points to a small IC50. For orientation: IC50 means the concentration needed to halve the response being measured. Low values mean greater potency, high ones weaker potency. The term inhibition denotes how much of the control response was suppressed.

Assay [1] can be described thus: Inhibition of Aspergillus niger amyloglucosidase using p-nitrophenyl glycoside as substrate by spectrometric method.
Assay [2] can be described thus: Inhibition of Aspergillus niger amyloglucosidase.
Assay [3] concerns the target T1, Tissue alpha-L-fucosidase (Bos taurus) (UniProt Q2KIM0).
T1 sequence (whole entry): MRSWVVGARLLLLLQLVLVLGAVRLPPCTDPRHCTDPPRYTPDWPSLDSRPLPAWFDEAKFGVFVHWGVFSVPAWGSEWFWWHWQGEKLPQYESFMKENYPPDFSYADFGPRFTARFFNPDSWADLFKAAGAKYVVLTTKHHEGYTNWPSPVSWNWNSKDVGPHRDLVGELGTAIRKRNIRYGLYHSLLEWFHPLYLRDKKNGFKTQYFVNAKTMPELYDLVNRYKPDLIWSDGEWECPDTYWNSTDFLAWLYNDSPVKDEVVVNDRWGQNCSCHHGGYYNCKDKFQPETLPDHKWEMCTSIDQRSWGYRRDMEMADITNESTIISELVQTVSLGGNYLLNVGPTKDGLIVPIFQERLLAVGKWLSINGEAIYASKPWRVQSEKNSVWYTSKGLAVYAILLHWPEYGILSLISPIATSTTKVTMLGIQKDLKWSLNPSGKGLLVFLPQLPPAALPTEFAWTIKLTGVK
As to the kind of experiment: Inhibition of bovine kidney alpha-L-fucosidase using p-nitrophenyl glycoside as substrate at 1000 uM by spectrometric method relative to control. The format is tissue-based.

The subject of assay [4] is Penicillium decumbens. As to the kind of experiment: Inhibition of Penicillium decumbens alpha-L-rhamnosidase using p-nitrophenyl glycoside as substrate at 1000 uM by spectrometric method relative to control.
Assay [5] is filed under the species Bos taurus. As to the kind of experiment: Inhibition of bovine liver beta-glucuronidase using p-nitrophenyl glycoside as substrate at 1000 uM by spectrometric method relative to control. The format is tissue-based.
Assay [6] is filed under the species Rattus norvegicus. Nature of the assay: Inhibition of rat intestinal maltase using maltose as substrate at 1000 uM at pH 6.8 by colorimetric method relative to control. Type of assay: tissue-based. The settings on record: Intestine.
Assay [7] concerns Prunus dulcis. As to the kind of experiment: Inhibition of almond beta-glucosidase using p-nitrophenyl glycoside as substrate at 1000 uM by spectrometric method relative to control.
The species named for assay [8] is Bos taurus. As to the kind of experiment: Inhibition of bovine liver beta-galactosidase using p-nitrophenyl glycoside as substrate at 1000 uM by spectrometric method relative to control. Type of assay: tissue-based.
Assay [9] is filed under the species Sus scrofa. As to the kind of experiment: Inhibition of porcine kidney alpha/alpha-trehalase using p-nitrophenyl glycoside as substrate at 1000 uM by spectrometric method relative to control. The format is tissue-based.
For assay [10], the system named is Helix pomatia. As to the kind of experiment: Inhibition of snail beta-mannosidase using p-nitrophenyl glycoside as substrate at 1000 uM by spectrometric method relative to control.
Assay [11] addresses Alpha-galactosidase (Coffea arabica) (UniProt Q42656). Nature of the assay: Inhibition of coffee bean alpha-galactosidase using p-nitrophenyl glycoside as substrate at 1000 uM by spectrometric method relative to control.
Assay [12] deals with Escherichia coli. As to the kind of experiment: Inhibition of Escherichia coli beta-glucuronidase using p-nitrophenyl glycoside as substrate at 1000 uM by spectrometric method relative to control.
The subject of assay [13] is Oryza sativa. As to the kind of experiment: Inhibition of rice alpha-glucosidase using p-nitrophenyl glycoside as substrate at 1000 uM by spectrometric method relative to control.
Assay [14] deals with T2, Alpha-mannosidase (Canavalia ensiformis) (UniProt C0HJB3).
T2 sequence (whole entry): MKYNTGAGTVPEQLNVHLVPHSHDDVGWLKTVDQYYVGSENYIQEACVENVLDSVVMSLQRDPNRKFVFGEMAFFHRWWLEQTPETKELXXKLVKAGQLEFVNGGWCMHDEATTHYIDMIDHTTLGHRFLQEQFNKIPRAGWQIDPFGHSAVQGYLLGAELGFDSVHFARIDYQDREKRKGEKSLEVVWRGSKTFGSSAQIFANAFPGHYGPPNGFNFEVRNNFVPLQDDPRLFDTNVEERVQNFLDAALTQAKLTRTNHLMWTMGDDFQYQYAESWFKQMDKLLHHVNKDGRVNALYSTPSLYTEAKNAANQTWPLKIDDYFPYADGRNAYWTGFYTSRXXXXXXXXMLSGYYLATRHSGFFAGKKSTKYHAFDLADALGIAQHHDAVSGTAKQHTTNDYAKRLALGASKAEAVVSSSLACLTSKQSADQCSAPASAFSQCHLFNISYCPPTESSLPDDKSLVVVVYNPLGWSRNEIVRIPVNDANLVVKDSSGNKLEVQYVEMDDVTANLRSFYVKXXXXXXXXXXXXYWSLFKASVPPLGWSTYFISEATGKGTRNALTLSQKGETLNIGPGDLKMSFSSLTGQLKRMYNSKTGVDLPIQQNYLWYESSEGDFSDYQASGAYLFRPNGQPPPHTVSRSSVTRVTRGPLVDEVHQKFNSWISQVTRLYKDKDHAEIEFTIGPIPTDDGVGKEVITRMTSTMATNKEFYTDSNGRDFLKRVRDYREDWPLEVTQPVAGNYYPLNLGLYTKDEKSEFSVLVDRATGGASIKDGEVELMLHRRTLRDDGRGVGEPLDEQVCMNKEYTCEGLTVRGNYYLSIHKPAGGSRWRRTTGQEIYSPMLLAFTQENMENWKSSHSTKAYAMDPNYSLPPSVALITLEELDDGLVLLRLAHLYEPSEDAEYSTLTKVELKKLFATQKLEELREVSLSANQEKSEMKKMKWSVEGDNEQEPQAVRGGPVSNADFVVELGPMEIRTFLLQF
Nature of the assay: Inhibition of jack bean alpha-mannosidase using p-nitrophenyl glycoside as substrate at 1000 uM by spectrometric method relative to control.

The species entered for assay [15] is Bos taurus. Nature of the assay: Inhibition of bovine liver beta-glucosidase using p-nitrophenyl glycoside as substrate at 1000 uM by spectrometric method relative to control. Type of assay: tissue-based.
In assay [16] the target is Alpha-glucosidase (Saccharomyces cerevisiae S288c) (UniProt P53341+P38158+P07265). As to the kind of experiment: Inhibition of yeast alpha-glucosidase using p-nitrophenyl glycoside as substrate at 1000 uM by spectrometric method relative to control. The format is protein assay.
Assay [17] is described as follows: Inhibition of rice alpha-glucosidase using p-nitrophenyl glycoside as substrate by spectrometric method. The arrangement: species or system Oryza sativa.
The nature of assay [18]: Inhibition of rat intestinal maltase using maltose as substrate at pH 6.8 by colorimetric method. The format is tissue-based, Intestine.

Sequence of Alpha-galactosidase (Coffea arabica) (Q42656 16-378 limits assumed): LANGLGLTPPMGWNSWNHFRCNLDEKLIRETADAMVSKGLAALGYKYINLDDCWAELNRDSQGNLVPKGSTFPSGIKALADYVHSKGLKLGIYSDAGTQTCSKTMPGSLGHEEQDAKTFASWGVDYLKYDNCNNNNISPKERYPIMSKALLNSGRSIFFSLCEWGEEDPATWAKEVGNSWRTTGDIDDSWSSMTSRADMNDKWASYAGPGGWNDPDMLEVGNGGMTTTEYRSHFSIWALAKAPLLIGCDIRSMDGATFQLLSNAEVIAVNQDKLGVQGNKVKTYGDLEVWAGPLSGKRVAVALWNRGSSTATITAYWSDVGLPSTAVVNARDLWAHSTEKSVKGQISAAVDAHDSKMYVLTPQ

For `OC[C@@H]1[C@@H](O)[C@H](O)[C@H]2[C@@H](O)[C@@H](O)CN21`, in [1], the pIC50 is listed as 4.194. For the same compound, the IC50 in [2] worked out at 64 µM.
Take `OC[C@@H]1[C@@H](O)[C@H](O)[C@H]2[C@@H](O)[C@H](F)CN21`: the inhibition in assay [3] came out at 0%; in assay [4], 0%; in [5] it was 23.1%; in assay [6], 41.7%; in assay [7], 8.5%; in assay [8] it was 17.6%. For the same compound, the inhibition in assay [9] was 30.4%; in [10], 0.8%; in assay [11], 0%; in assay [12], 2.9%; in assay [13], 28.4%; in assay [14], 0%. Further, the figures for the inhibition in assay [15] and in [16] were 32.3% and 0%, respectively. In addition, the IC50 in [1] was 11 µM. This compound yielded a pIC50 in assay [1] of 4.959.
`OC[C@@H]1[C@@H](O)[C@H](O)[C@H]2[C@H](F)[C@@H](O)CN21` had a pIC50 in [1] of 5.276. Half-maximal inhibition in assay [2] (IC50) required 5.3 µM.
In the case of `OC[C@@H]1[C@@H](O)[C@H](O)[C@H]2[C@@H](O)C(F)(F)CN21`, the inhibition in [3] was determined as 6.4%; in [4], 0%; in assay [5], 10.1%; in assay [6], 28.4%; in assay [7] it was 3.5%; in assay [8] it was 6.2%. Also, the inhibition was 9.2% in [9]; 0% in assay [10]; 0.2% in assay [11]; 2.6% in assay [12]; 7.7% in [13]; 0.8% in [14]. Also, the results for the inhibition in assay [15] and in [16] were 12% and 5.6%, respectively. This compound came in with an IC50 in assay [1] of 246 µM. Moreover, the pIC50 in [1] is listed as 3.609.
On to `OC[C@@H]1[C@@H](O)[C@H](O)[C@H]2[C@@H](O)[C@@H](F)CN21`, for which the inhibition turned out to be 14% in assay [3]; 1.7% in assay [4]; 13.3% in assay [5]; 13.6% in assay [7]; 38% in assay [8]; 30.4% in assay [9]. The inhibition came to 0% in assay [10]; 0% in [11]; 7% in assay [12]; 3.3% in assay [14]; 35.9% in assay [15]; 18% in assay [16]. For the same compound, the IC50 in assay [1] amounted to 248 µM; in [17], 350 µM; in assay [18], 927 µM. Besides, in assay [1], the pIC50 is given as 3.606.
As to `OC[C@@H]1[C@@H](O)[C@H](O)[C@H]2CC(F)(F)CN12`, the inhibition in assay [3] is 0%; in assay [4], 3%; in assay [5], 0%; in assay [6], 7.9%; in assay [7] it was 11.4%; in [8], 22.4%. The inhibition is 3.2% in assay [9]; 0% in assay [10]; 1.6% in [11]; 0% in [12]; 15.4% in assay [13]; 0% in assay [14]. Besides, the values for the inhibition in [15] and in [16] were 12.5% and 3.6%, respectively. In assay [1], this compound had an IC50 of 27 µM. This compound also had a pIC50 in assay [1] of 4.569.
For `OC[C@@H]1[C@@H](O)[C@H](O)[C@H]2[C@H](O)[C@@H](F)CN21`, the inhibition worked out at 14.6% in [3]; 14.1% in assay [4]; 33.2% in assay [5]; 21.5% in [7]; 36.7% in assay [8]; 34.4% in [9]. Moreover, the inhibition in assay [10] worked out at 6.2%; in assay [11], 5%; in [12], 7.5%; in [14], 0%; in assay [15], 18.8%; in assay [16] it was 41.9%. Further, the IC50 in assay [1] was found to be 35 µM; in assay [17] it was 771 µM; in assay [18], 313 µM. The same compound showed a pIC50 in assay [1] of 4.456.
For `OC[C@@H]1[C@@H](O)[C@H](O)[C@H]2C[C@@H](F)CN12`, the inhibition turned out to be 0.9% in [3]; 4.9% in assay [4]; 21.9% in assay [5]; 30.9% in assay [6]; 17.7% in assay [7]; 29.9% in [8]. The inhibition in [9] came out at 42.3%; in [10], 4.3%; in assay [11] it was 6.7%; in assay [12], 1.2%; in assay [13], 17.7%; in [14] it was 2.3%. The inhibition in [15] was 24.3%; in assay [16], 30.1%. Moreover, half-maximal inhibition in assay [1] (IC50) required 633 µM. Moreover, in [1], the pIC50 is reported as 3.199.
`OC[C@@H]1[C@@H](O)[C@H](O)[C@H]2[C@H](F)[C@H](O)CN21` showed a pIC50 in assay [1] of 5.347. Moreover, half-maximal inhibition in assay [2] (IC50) was put at 4.5 µM.
The matching figures for `OC[C@@H]1[C@@H](O)[C@H](O)[C@H]2[C@@H](F)[C@H](O)CN21`: 3.777 and 167 µM.
The matching figures for `OC[C@@H]1[C@@H](O)[C@H](O)[C@H]2[C@@H](F)CCN21`: 4.092 and 81 µM.
The matching figures for `OC[C@@H]1[C@@H](O)[C@H](O)[C@H]2[C@@H](F)[C@@H](O)CN21`: 3.818 and 152 µM.
As to `OC[C@@H]1[C@@H](O)[C@H](O)[C@@H]2N1C[C@@H](O)C2(F)F`, the pIC50 in assay [1] is 4.222. The same compound displayed an IC50 in assay [2] of 60 µM.
On to `OC[C@@H]1[C@@H](O)[C@H](O)[C@@H]2N1C[C@H](O)C2(F)F`, for which, in assay [1], the pIC50 stood at 4.409. The compound further registered an IC50 in assay [2] of 39 µM.
For `OC[C@@H]1[C@@H](O)[C@H](O)[C@H]2C[C@H](F)CN12`, the inhibition came out at 0% in assay [3]; 9.9% in assay [4]; 14.8% in [5]; 7.9% in [6]; 36.8% in [7]; 25.8% in assay [8]. Moreover, the inhibition in [9] came to 23%; in [10], 0%; in assay [11] it was 2.9%; in assay [12], 0%; in assay [13], 10%; in [14] it was 0%. In addition, the values for the inhibition in assay [15] and in assay [16] were 25.5% and 0%, respectively. The compound further showed an IC50 in assay [1] of 2.2 µM. This compound registered a pIC50 in [1] of 5.658.
